# Assay results as given in patent publication US11008334B2, “Compositions and methods for treating cancer” (The Regents of the University of California, priority 2012, dated 2021).
# Like-named read-outs stand apart in the source and are kept apart here.
# Biological target: T1, K-RasG12C (1-169) (Homo sapiens, UniProt P01116, G12C)
# T1 construct: Un-tagged recombinant K-Ras G12C (1-169) at 4 μM in Buffer A; hexahistidine (cleaved yes); made in house; host or cells: Escherichia coli BL21 (DE)
# Assay: Mass spectrometric screen for extent of covalent labeling
# Type: binding
# Conditions: for percent covalent labeling at 10 µM: 10 micromolar; for Labeling % (10 micM) 24h: 10 micM compound, (plate) or (single) measurement
# Method: Un-tagged recombinant K-Ras G12C (1-169) at 4 μM in Buffer A was reacted with inhibitors at 200 μM or 10 μM (2% DMSO final). At 2, 6, and 24 hrs, 10 μL aliquots were removed and the reactions were stopped by addition of 1 μL 2% formic acid. The extent of modification was determined by mass spectrometry.
# [1] = 2 h, 2 hrs, read-out: Percent reduction in activity of compound at 10 micromolar relative to control (no compound), 2 hrs
# [2] = 6 h, 6 hrs, read-out: Percent reduction in activity of compound at 10 micromolar relative to control (no compound), 6 hrs
# [3] = 24 h, 24 hrs, read-out: Percent reduction in activity of compound at 10 micromolar relative to control (no compound), 24 hrs
percent covalent labeling at 10 µM [1],percent covalent labeling at 10 µM [2],percent covalent labeling at 10 µM [3],Labeling % (10 micM) 24h,Labeling % (10 micM) 24h (Table 5),Compound
20 to 40%,> 60%,> 60%,–,+++++ (single) (60% < +++++),C=CS(=O)(=O)NC1CCN(C(=O)CNc2cc(I)c(Cl)cc2OC)CC1 [Ras-079]
–,–,20 to 40%,–,–,C=CC(=O)N1CCN(C(=O)CNc2cc(I)c(Cl)cc2OC)CC1 [Ras-080]
–,20 to 40%,> 60%,–,–,C=CS(=O)(=O)NC1CCN(C(=O)CNc2cc(-c3ccccc3)c(Cl)cc2OC)CC1 [Ras-082]
20 to 40%,> 60%,> 60%,–,–,C=CS(=O)(=O)NC1CCN(C(=O)CNc2cc(I)c(Cl)cc2O)CC1 [Ras-084]
5 to 20%,20 to 40%,> 60%,–,–,C=CS(=O)(=O)NC1CCN(C(=O)CNc2cc(CC)c(Cl)cc2OC)CC1 [Ras-085]
–,–,40 to 60%,–,–,C=CS(=O)(=O)NC1CCN(C(=O)CNc2cc(-c3ccccc3)c(Cl)cc2I)CC1 [Ras-086]
≤ 5%,≤ 5%,≤ 5%,–,–,C=CS(=O)(=O)NC1CCN(C(=O)COc2c(Cl)cc(Cl)c3cccnc23)CC1 [UP-I-154A]
≤ 5%,≤ 5%,≤ 5%,–,–,C=CS(=O)(=O)NC1CCN(C(=O)CSc2cn(CC)c3ccccc23)CC1 [UP-I-154B]
≤ 5%,≤ 5%,≤ 5%,–,–,C=CS(=O)(=O)NC1CCN(C(=O)COc2ncnc3sc(C)cc23)CC1 [UP-I-154K]
≤ 5%,≤ 5%,≤ 5%,–,–,C=CS(=O)(=O)NC1CCN(C(=O)CSc2nc3cc(C)ccc3[nH]2)CC1 [UP-I-160B]
≤ 5%,≤ 5%,≤ 5%,–,–,C=CS(=O)(=O)NC1CCN(C(=O)COc2c(Cl)cc(Cl)cc2NC(=O)OC(C)(C)C)CC1 [UP-I-162B]
≤ 5%,≤ 5%,≤ 5%,–,–,C=CS(=O)(=O)NC1CCN(C(=O)CSc2nnc(C)s2)CC1 [UP-I-164A]
≤ 5%,≤ 5%,≤ 5%,–,–,C=CS(=O)(=O)NC1CCN(C(=O)CSc2nnc(C)o2)CC1 [UP-I-164B]
≤ 5%,≤ 5%,≤ 5%,–,–,C=CS(=O)(=O)NC1CCN(C(=O)CSc2n[nH]c(C)n2)CC1 [UP-I-164C]
≤ 5%,≤ 5%,≤ 5%,–,–,C=CS(=O)(=O)NC1CCN(C(=O)COc2c(Cl)cc(Cl)cc2-c2ccno2)CC1 [UP-I-165B]
≤ 5%,≤ 5%,≤ 5%,–,–,C=CS(=O)(=O)NC1CCN(C(=O)COc2ccc3nncn3n2)CC1 [UP-I-165C]
≤ 5%,≤ 5%,≤ 5%,–,–,C=CS(=O)(=O)NC1CCN(C(=O)CSc2nc(C)cs2)CC1 [UP-I-165D]
≤ 5%,5 to 20%,40 to 60%,++++ (plate) (40% < ++++ <=60%),++++ (plate) (40% < ++++ <=60%),C=CS(=O)(=O)NC1CCN(C(=O)COc2c(Cl)cc(Cl)c3c2OC(C)(C)O3)CC1 [UP-I-177C]
≤ 5%,≤ 5%,> 60%,–,–,C=CS(=O)(=O)NC1CCN(C(=O)COc2c(Br)cc(Br)c3c2OC(C)(C)O3)CC1 [UP-I-177D]
5 to 20%,20 to 40%,> 60%,+++++ (single) (60% < +++++),+++++ (single) (60% < +++++),C=CS(=O)(=O)NC1CCN(C(=O)CNc2c(Cl)cc(Cl)c3nsnc23)CC1 [UP-I-185a]
≤ 5%,≤ 5%,5 to 20%,–,–,C=CS(=O)(=O)NC1CCN(C(=O)COc2c(N)cc(Cl)cc2Cl)CC1 [UP-I-185b]
≤ 5%,≤ 5%,20 to 40%,–,+++ (single) (20%< +++ <=40%),C=CS(=O)(=O)NC1CCN(C(=O)CNc2c(Cl)cc(Cl)c3nonc23)CC1 [UP-I-187]

# More lines, now with the values behind:
Compound,percent covalent labeling at 10 µM [1],percent covalent labeling at 10 µM [2],percent covalent labeling at 10 µM [3],Labeling % (10 micM) 24h,Labeling % (10 micM) 24h (Table 5)
C=CS(=O)(=O)NC1CCN(C(=O)CNc2cc(Cl)c(Cl)cc2OC)CC1 [Ras-054],≤ 5%,20 to 40%,> 60%,–,–
C=CS(=O)(=O)NC1CCN(C(=O)CNc2cc(Cl)c(Cl)cc2O)CC1 [Ras-055],5 to 20%,20 to 40%,> 60%,+++++ (plate) (60% < +++++),+++++ (plate) (60% < +++++)
C=CS(=O)(=O)NC1CCN(C(=O)COc2cc(-c3cn[nH]c3)c(Cl)cc2Cl)CC1 [Ras-056],≤ 5%,≤ 5%,≤ 5%,–,–
C=CS(=O)(=O)NC1CCN(C(=O)C(C)Oc2cc(CN)c(Cl)cc2Cl)CC1 (stereo not shown) [Ras-058],≤ 5%,≤ 5%,≤ 5%,–,–
C=CS(=O)(=O)NC1CCN(C(=O)CNc2cc(Cl)c(Cl)cc2CC)CC1 [Ras-059],≤ 5%,5 to 20%,> 60%,+++++ (single) (60% < +++++),+++++ (single) (60% < +++++)
C=CS(=O)(=O)NC1CCN(c2cc(-c3cc(Cl)c(Cl)cc3I)ccn2)CC1 [Ras-060],≤ 5%,≤ 5%,≤ 5%,–,–
C=CS(=O)(=O)NC1CCN(C(=O)COc2cc(NS(C)(=O)=O)c(Cl)cc2Cl)CC1 [Ras-061],≤ 5%,≤ 5%,≤ 5%,–,–
C=CC(=O)N1CCN(C(=O)CNc2cc(Cl)c(Cl)cc2OC)CC1 [Ras-062],≤ 5%,≤ 5%,20 to 40%,+++ (single) (20%< +++ <=40%),+++ (single) (20%< +++ <=40%)
C=CS(=O)(=O)NC1CCN(C(=O)COc2cc(Cl)c(Cl)cc2O)CC1 [Ras-063],≤ 5%,5 to 20%,20 to 40%,–,–
C=CS(=O)(=O)NC1CCN(C(=O)CNc2cc(OC)c(Cl)cc2OC)CC1 [Ras-064],≤ 5%,≤ 5%,20 to 40%,–,–
C=CS(=O)(=O)NC1CCN(C(=O)CNc2cc(C(F)(F)F)c(Cl)cc2OC)CC1 [Ras-065],≤ 5%,5 to 20%,20 to 40%,–,–
C=CC(=O)N1CCN(C(=O)CNc2cc(C(F)(F)F)c(Cl)cc2OC)CC1 [Ras-066],≤ 5%,≤ 5%,5 to 20%,–,–
C=CS(=O)(=O)NC1CCN(C(=O)COc2ccc(Cl)cc2C(F)(F)F)CC1 [Ras-067],≤ 5%,≤ 5%,5 to 20%,–,–
C=CS(=O)(=O)NC1CCN(CC(=O)Nc2cc(Cl)c(Cl)cc2I)CC1 [Ras-068],≤ 5%,≤ 5%,≤ 5%,–,–
C#CCOc1cc(OCC(=O)N2CCC(NS(=O)(=O)C=C)CC2)c(Cl)cc1Cl [Ras-069],≤ 5%,5 to 20%,> 60%,–,+++ (single) (20%< +++ <=40%)
C=CS(=O)(=O)NC1CCN(C(=O)COc2cc(CCO)c(Cl)cc2Cl)CC1 [Ras-070],≤ 5%,≤ 5%,20 to 40%,–,–
C#Cc1cc(OCC(=O)N2CCC(NS(=O)(=O)C=C)CC2)c(Cl)cc1Cl [Ras-071],≤ 5%,≤ 5%,40 to 60%,–,–
C=CS(=O)(=O)N1CCC(Nc2cc(-c3cc(Cl)c(Cl)cc3I)ccn2)CC1 [Ras-072],≤ 5%,≤ 5%,≤ 5%,–,–
C=CC(=O)N1CCN(C(=O)CNc2cc(Cl)c(Cl)cc2O)CC1 [Ras-073],–,20 to 40%,> 60%,–,–
C=CS(=O)(=O)NC1CCN(C(=O)COc2cc(C(C)(C)O)c(Cl)cc2Cl)CC1 [Ras-074],–,–,40 to 60%,–,–
C=CS(=O)(=O)NC1CCN(C(=O)CNc2cc(OC)c(Cl)cc2I)CC1 [Ras-077],–,5 to 20%,> 60%,–,–
